What all share (format): in vivo
Assay [1] concerns cucumber gray mold fungus (Botrytis cinerea). Kind of assay: Preventive test against gray mold on cucumber cotyledon leaves, spray treatment, preventive value and Colby expected value (Test Examples 1-4). Particulars: single compound; for pest or weed control at 10 ppm / pest or weed control at 50 ppm / pest or weed control at 20 ppm: Botrytis cinerea, 72 h; for pest or weed control at 50 ppm: 50 ppm spray; for pest or weed control at 20 ppm: 20 ppm spray. As to the method: Using the following compound listed in Table 2 (the active ingredient A) and the compound listed in Table 5 through Table 15 (active ingredient B), an agent was prepared in accordance with the above Formulation Example. This agent was diluted with water to a predetermined concentration to obtain a test solution. Then, cucumber (variety: Sagami-hanjiro) was planted in a plastic pot of 90 cm^3, and in the cotyledon stage, 5 ml of the obtained test solution, was sprayed by a spray gun and air-dried. Thereafter, the treated leaf was cut off and placed in a plastic container which filled approximately 0.5 cm in depth water. A suspension of conidia of cucumber gray mold fungus (Botrytis cinerea) and a dissolved PDA culture medium were mixed at a ratio of 1:1 (mass ratio), and the mixture was dropped to inoculate the treated leaf with 30 μl. After the inoculation, the plastic container was sealed and left at 20° C. for 3 days, the ratio of the formed lesion occupying the inoculated leaf was measured, and the preventive value was calculated in accordance with the following calculation formula. Preventive value=[1−(treated plot lesion area ratio/untreated plot lesion area ratio)]×100
Further, from the preventive value at each agent concentration, synergy was calculated by using the Colby method (Colby S. R. 1976, Weeds 15, 20-22). The calculation method is as follows. E=X+Y−XY/100
X: preventive value of A agent at x concentration
Y: preventive value of B agent at y concentration
E: theoretical value expected by treatment of the mixture of A agent and B agent.
The obtained result is analyzed to be synergy if the observed value is larger than the expected value, to be antagonism if the expected value is larger than the observed value, and to be an additive effect if the observed value and the expected value are the same.
Using the following compound listed in Table 2 (active ingredient A) and the following compound listed in Table 5 through Table 15 (active ingredient B) as active ingredients, a preventive test against gray mold was conducted in accordance with the method described in Test Example 1.
Using the following compound listed in Table 2 (active ingredient A) and the following compound listed in Table 5 or Table 6 (active ingredient B) as active ingredients, a preventive test against gray mold was conducted in accordance with the method described in Test Example 1.
Using the following compound listed in Table 2 (active ingredient A) and the following compound listed in Table 6 through Table 16 (active ingredient B) as active ingredients, a preventive test against gray mold was conducted in accordance with the method described in Test Example 1.

Assay [2] has as its system wheat glume blotch (Leptosphaeria nodorum). Kind of assay: Efficacy test on wheat glume blotch, spray treatment and prevention test (Test Example 8). Particulars: for pest or weed control at 5 ppm: single compound 5 ppm. Here is the method:
An agent comprising the following compound listed in Table 2 (active ingredient A) and the following compound listed in Table 6, Table 11 or Table 15 (active ingredient B) as active ingredients, was prepared in accordance with the above Formulation Example. This agent was diluted with water to a predetermined concentration to obtain a test solution. Then, to seedlings of wheat (variety: Haruyutaka) at the 1-leaf stage, seeded in a pot with a diameter of 7 cm, with 5 seeds per pot, and grown for 7 days, the test solution was applied by a spray gun in an amount of 5 ml per pot, for treatment. One day after the treatment, a spore suspension (1×100,000 cfu/ml) of wheat glume blotch (Leptosphaeria nodorum) was spray-inoculated, and the pot was placed in a moist chamber set in temperature of 20° C. and humidity more than 95% RH for 48 hours. After placing the pot in a glass greenhouse for 7 days, the ratio of the formed lesion area occupying the inoculated leaves was measured, and the preventive value was calculated in accordance with the following formula. Preventive value=[1−(treated plot lesion area ratio/untreated plot lesion area ratio)]×100
(§1) Further, from the preventive value for each agent concentration, synergy was calculated by using the Colby method (Colby S. R. 1976, Weeds 15, 20-22).

Assay [3] deals with cucumber downy mildew (Pseudoperenospora cubensis). Kind of assay: Efficacy test on cucumber downy mildew, spray treatment and prevention test (Test Example 7). Particulars: single compound 0.5 ppm; lesion area ratio. As to the method:
An agent comprising the following compound listed in Table 2 (active ingredient A) and the compound listed in Table 6 (C40: active ingredient B) as active ingredients, was prepared in accordance with the above Formulation Example. This agent was diluted with water to a predetermined concentration to obtain a test solution. Then, to seedlings of cucumber (variety: Sagami-hanjiro) at 1.5-leaf stage grown in a pot with a diameter of 7 cm, the test solution was applied by a spray gun in an amount of 10 ml per pot, for treatment. One day after the treatment, a spore suspension (2×100,000 cfu/ml) of cucumber downy mildew (Pseudoperenospora cubensis), was spray-inoculated, and the pot was placed in a moist chamber set in temperature of 20° C. and humidity more than 95% RH for 24 hours. After placing the pot in a glass greenhouse for 6 days, the ratio of the formed lesion area occupying the inoculated leaves was measured, and the preventive value was calculated in accordance with the following formula. Preventive value=[1−(treated plot lesion area ratio/untreated plot lesion area ratio)]×100
as §1

Assay [4] concerns rice sheath blight fungus (Rhizoctonia solani). The assay is described as follows: Efficacy test on rice sheath blight, spray treatment and prevention test (Test Examples 5-6). The following applies: single compound 5 ppm, lesion height. Here is the method: An agent comprising the following compound listed in Table 2 (active ingredient A) and the compound listed in Table 6 (C17: active ingredient B) as active ingredients, was prepared in accordance with the above Formulation Example. The agent was diluted with water to a predetermined concentration to obtain a test solution. Then, in a plastic pot of 90 cm^3, rice (Nipponbare) was seeded by 5 grains in one place, and to the grown seedlings in 4 seedling phase, the test solution was applied by a spray gun in an amount of 5 ml per pot, for treatment.
One day after the treatment, 1 g of mycelium flora of rice sheath blight fungus (Rhizoctonia solani) cultured in bran medium, was put by […] to a close-to-ground part of seedlings, and the pot was placed in a moist chamber set in temperature of 25° C. and humidity more than 95% RH for eight days. The height of the lesions which appeared in the highest position from the close-to-ground part (lesion height) was investigated, and the preventive value was calculated in accordance with the following formula. Preventive value=[1−(treated plot lesion height/untreated plot lesion height)]×100
as §1
Using the following compound listed in Table 2 (active ingredient A) and the compound listed in Table 6 (C17: active ingredient B) as active ingredients, a preventive test on rice sheath blight was conducted in accordance with the above Test Example 5.

Assay [5] relates to wheat glume blotch (Leptosphaeria nodorum). Kind of assay: Efficacy test on wheat glume blotch, seed treatment (Test Example 9). Particulars: single compound. As to the method:
An agent comprising the following compound listed in Table 2 (active ingredient A) and the compound listed in Table 11 (H35: active ingredient B) as active ingredients, was prepared in accordance with the above Formulation Example. This agent was diluted with water to a predetermined concentration to obtain a test solution. A predetermined amount of the test solution was put in a glass bottle of 5 ml, and 0.5 g (approximately 15 grains) of wheat seeds (variety: Haruyutaka) were added, stirred and air-dried. In each pot with a diameter of 7 cm having soil put therein, 3 grains were seeded and grown for 14 days. To seedlings of the wheat (variety: Haruyutaka) grown to a 1-leaf stage, a spore suspension (100,000 cfu/ml) of wheat glume blotch (Leptosphaeria nodorum) was spray-inoculated, and the pot was placed in a moist chamber set in temperature of 20° C. and humidity more than 95% RH for 48 hours. After placing the pot for 7 days in a glass greenhouse, the ratio of the formed lesion area occupying the inoculated leaves was measured, and the preventive value was calculated in accordance with the following formula. Preventive value=[1−(treated plot lesion area ratio/untreated plot lesion area ratio)]×100
(§2) Further, from the preventive value at each agent concentration, synergy was calculated by using the Colby method (Colby S. R. 1976, Weeds 15, 20-22).

For assay [6], the system named is wheat powdery mildew (Blumeria graminis). The assay is described as follows: Efficacy test on wheat powdery mildew, seed treatment (Test Example 10). The following applies: wheat (Norin 61). As to the method: An agent comprising the following compound listed in Table 2 (active ingredient A) and the compound listed in Table 11 (H35: active ingredient B) as active ingredients, was prepared in accordance with the above Formulation Example. This agent was diluted with water to a predetermined concentration to obtain a test solution. A predetermined amount of test solution was put in a glass bottle of 5 ml, and 0.5 g (approximately 15 grains) of wheat seeds (variety: Norin 61) were added, stirred and air-dried. In each pot with a diameter of 7 cm and having soil put therein, 3 grains were seeded and grown for 14 days. To the wheat seedlings grown to the 1-leaf stage, a spore suspension (100,000 cfu/ml) of wheat powdery mildew (Blumeria graminis) was spray-inoculated. After placing the pot in a glass greenhouse for 10 days, the ratio of the formed lesion area occupying the inoculated leaves was measured, and the preventive value was calculated in accordance with the following formula. Preventive value=[1−(treated plot lesion area ratio/untreated plot lesion area ratio)]×100
as §2

Setting [7] is: Test Example 4, 10 ppm spray, read-out: Preventive value.
[8] abbreviates: Parastagonospora nodorum, single compound 50 ppm, spray, lesion area ratio, read-out: Preventive value.
Where [9] appears, read: Test Example 1, read-out: Preventive value.
Where [10] appears, read: Test Example 2, read-out: Preventive value.
The mark [11] stands for this setting: Parastagonospora nodorum, spray, lesion area ratio, read-out: Preventive value.

Read-outs that look alike come from different tables or passages of the source.

In the case of `CNC(=O)C(OC)c1ccccc1COc1cc(C)ccc1C` (centres unmarked) [C29, mandestrobin, reference compound], the Preventive value in assay [1] (Test Example 4, 10 ppm spray) is 45; in assay [2] (single compound 10 ppm, spray, lesion area ratio) it was 50.

For `CO/C=C(/C(=O)OC)c1ccccc1COc1cccc(C(F)(F)F)n1` [C32, picoxystrobin, reference compound], the Preventive value in assay [1] (Test Example 4, 10 ppm spray) amounted to 30; in assay [2] (single compound 1 ppm, spray, lesion area ratio) it was 50.

With `COC(=O)N(OC)c1ccccc1COc1ccn(-c2ccc(Cl)cc2)n1` [C33, pyraclostrobin, reference compound], the pest or weed control at 10 ppm in assay [1] (setting [7]) was 50%. The pest or weed control at 1 ppm in assay [2] (Parastagonospora nodorum, single compound 1 ppm, spray, lesion area ratio, read-out: Preventive value) turned out to be 65%.

As for `COC(=O)NCc1cc(/C(C)=N/OCc2cccc(C)n2)ccc1Cl` [C36, pyribencarb-methyl, reference compound], the Preventive value was determined as 60 in assay [1] (Test Example 4, 10 ppm spray) and 45 in assay [2] (single compound 25 ppm, spray, lesion area ratio).

For `CON=C(C(=O)OC)c1ccccc1CON=C(C)c1cccc(C(F)(F)F)c1` [C39, trifloxystrobin, reference compound], the pest or weed control at 10 ppm in assay [1] (setting [7]) is 40%. For the same molecule, in assay [2] (setting [8]), the pest or weed control at 50 ppm is 70%.

In the case of `Cc1c(Br)c2ccc(F)cc2n1S(=O)(=O)c1ncn(S(=O)(=O)N(C)C)n1` [C40, amisulbrom], the Preventive value in assay [1] (Test Example 1, 100 ppm spray) was found to be 0; in assay [1] (Test Example 2, 100 ppm spray), 0; in assay [3] it was 75.

Take `Cc1nc(C(F)(F)F)c(C(=O)Nc2c(Br)cc(OC(F)(F)F)cc2Br)s1` [Compound No. C17, thifluzamide, reference compound]: the figures for the pest or weed control at 50 ppm in assay [1] (setting [9]) and in assay [1] (setting [10]) were 20% and 25%, respectively. Besides, the Preventive value is given as 69 in assay [4] (Test Example 5) and 75 in assay [4] (Test Example 6).

For `OC(Cc1ccccc1Cl)(Cn1nc[nH]c1=S)C1(Cl)CC1` (centres unmarked) [Compound No. H31, prothioconazole, reference compound], the pest or weed control at 10 ppm in assay [1] (setting [7]) was determined as 50%. Besides, the pest or weed control at 50 ppm in assay [2] (setting [8]) is 30%.

For the molecule `CC(C)(C)C(O)(CCc1ccc(Cl)cc1)Cn1cncn1` (centres unmarked) [Compound No. H35, tebuconazole, reference compound], the pest or weed control at 20 ppm was found to be 45% in assay [1] (Test Example 1) and 50% in assay [1] (Test Example 2). Moreover, the pest or weed control at 5 ppm in assay [2] (setting [11]) stood at 45%. For the same molecule, the Preventive value in assay [5] (processing amount 1 mg/1 g seed) was found to be 60; in assay [5] (processing amount 5 mg/1 g seed), 75; in assay [6] (processing amount 0.025 mg/1 g seed) it was 80; in assay [6] (processing amount 0.1 mg/1 g seed), 95.

In the case of `N#CC(CCc1ccc(Cl)cc1)(Cn1cncn1)c1ccccc1` (centres unmarked) [H13, fenbuconazole], the pest or weed control at 50 ppm in assay [1] (setting [9]) was found to be 63%; in assay [1] (setting [10]) it was 60%. In addition, the pest or weed control at 25 ppm in assay [2] (Parastagonospora nodorum, single compound 25 ppm, spray, lesion area ratio, read-out: Preventive value) was 50%.

For the molecule `CC1(C)CCC(Cc2ccc(Cl)cc2)C1(O)Cn1cncn1` (centres unmarked) [H23, metconazole, reference compound], in assay [1] (setting [7]), the pest or weed control at 10 ppm is 60%. In addition, in assay [2] (setting [11]), the pest or weed control at 5 ppm is 45%.

As for `CCCCC(C#N)(Cn1cncn1)c1ccc(Cl)cc1` (centres unmarked) [H24, myclobutanil, reference compound], the pest or weed control at 10 ppm in assay [1] (setting [7]) came out at 60%. Also, the pest or weed control at 100 ppm in assay [2] (Parastagonospora nodorum, single compound 100 ppm, spray, lesion area ratio, read-out: Preventive value) worked out at 70%.

For `CCCN(CCOc1c(Cl)cc(Cl)cc1Cl)C(=O)n1ccnc1` [H29, prochloraz, reference compound], the pest or weed control at 10 ppm in assay [1] (read-out: Preventive value, Test Example 4, 10 ppm spray) was 50%. The pest or weed control at 50 ppm in assay [2] (Parastagonospora nodorum, read-out: Preventive value) was determined as 45%.

`N#Cc1c(Cl)c(Cl)c(Cl)c(C#N)c1Cl` [L25, chlorothalonil]: the pest or weed control at 50 ppm turned out to be 50% in assay [1] (setting [9]), 55% in assay [1] (setting [10]) and 50% in assay [2] (setting [8]).

For the origin of these results see patent US9974305B2, “Fungicidal or bactericidal composition, and method for controlling diseases” (NISSAN CHEMICAL INDUSTRIES, LTD., priority 2014, dated 2018).
